The text below walks through data of patent US20150057246A1, “SILYL-CONTAINING HETEROCYCLIC COMPOUNDS AND METHODS OF USE THEREOF FOR THE TREATMENT OF VIRAL DISEASES” (priority 2012, published 2015).

In assay [1] the test system is HCV 1a replicon. Kind of assay: Cell-based HCV replicon assay (TaqMan), genotype 1a replicon. The following applies: Hepatitis C virus, 72 h, HCV genotype 1a replicon cells, replicon RNA by real time PCR, day 3; EC90 = concentration for ΔCT=3.2 over baseline. The gist of the method:
(§1)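 Replicon cells seeded at 5000 cells/well with compound as 10 serial 2-fold dilutions (top 250 μM to 1 μM), 0.5% DMSO, 5% FBS, 3 days. NS5B replicon RNA quantified by multiplex TaqMan RT-PCR against GAPDH. EC50 = concentration giving ΔCT=1 over baseline; EC90 = ΔCT=3.2, from sigmoid fit.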

The subject of assay [2] is HCV 2b replicon. Kind of assay: Cell-based HCV replicon assay (TaqMan), genotype 2b replicon. The following applies: Hepatitis C virus, 72 h, read-out: 2b EC90, HCV genotype 2b replicon cells, replicon RNA by real time PCR, day 3; EC90 = concentration for ΔCT=3.2 over baseline. An outline of the steps: as §1
In general terms: A replicon is a self-replicating genome or part of one, used to study replication in cells.

The subject of assay [3] is HCV 1a Y93H replicon. Kind of assay: Cell-based HCV replicon assay (TaqMan), 1a Y93H mutant replicon. The following applies: Hepatitis C virus, 72 h, read-out: 1a Y93H EC90, HCV 1a Y93H mutant replicon cells, replicon RNA by real time PCR, day 3; EC90 = concentration for ΔCT=3.2 over baseline. The gist of the method:
as §1

Assay [4] concerns HCV 1b replicon. Kind of assay: Cell-based HCV replicon assay (TaqMan), genotype 1b replicon. The following applies: Hepatitis C virus, 72 h, HCV genotype 1b replicon cells, replicon RNA by real time PCR, day 3; EC90 = concentration for ΔCT=3.2 over baseline. The protocol:
Measurement of inhibition by compounds of the present invention was performed using the HCV replicon system. Several different replicons encoding different HCV genotypes or mutations were used. In addition, potency measurements were made using different formats of the replicon assay, including different ways of measurements and different plating formats. See Jan M. Vrolijk et al., A replicons-based bioassay for the measurement of interferons in patients with chronic hepatitis C, 110 J. VIROLOGICAL METHODS 201 (2003); Steven S. Carroll et al., Inhibition of Hepatitis C Virus RNA Replication by 2′-Modified Nucleoside Analogs, 278(14) J. BIOLOGICAL CHEMISTRY 11979 (2003). However, the underlying principles are common to all of these determinations, and are outlined below.
TaqMan®-Based Assay Protocol:
Compounds of the present invention were assayed for cell-based anti-HCV activity using the following protocol. Replicon cells were seeded at 5000 cells/well in 96-well collagen I-coated Nunc plates in the presence of the test compound. Various concentrations of test compound, typically in 10 serial 2-fold dilutions, were added to the assay mixture, with the starting concentration ranging from 250 μM to 1 μM. The final concentration of DMSO was 0.5%, fetal bovine serum was 5%, in the assay media. Cells were harvested on day 3 by the addition of 1× cell lysis buffer (Ambion cat #8721). The replicon RNA level was measured using real time PCR (TaqMan® assay). The amplicon was located in 5B. The PCR primers were: 5B.2F, ATGGACAGGCGCCCTGA (SEQ. ID NO. 1); 5B.2R, […] (SEQ. ID NO. 2); the probe sequence was FAM-labeled CACGCCATGCGCTGCGG (SEQ. ID NO. 3). GAPDH RNA was used as endogenous control and was amplified in the same reaction as NS5B (multiplex PCR) using primers and VIC-labeled probe recommended by the manufacturer (PE Applied Biosystem). The real-time […] reactions were run on ABI PRISM 7900HT Sequence Detection System using the following program: 48° C. for 30 minutes, 95° C. for 10 minutes, 40 cycles of 95° C. for 15 sec, 60° C. for 1 minute. The ΔCT values (CT5B-CTGAPDH) were plotted against the concentration of test compound and fitted to the sigmoid dose-response model using XLfit4 (MDL). EC50 was defined as the concentration of inhibitor necessary to achieve ΔCT=1 over the projected baseline; EC90 the concentration necessary to achieve ΔCT=3.2 over the baseline. Alternatively, to quantitate the absolute amount of replicon RNA, a standard curve was established by including serially diluted T7 transcripts of replicon RNA in the Taqman assay. All TaqMan® reagents were from PE Applied Biosystems. Such an assay procedure was described in detail in e.g. Malcolm et al., Antimicrobial Agents and Chemotherapy 50: 1013-1020 (2006).
HCV replicon EC50 assay data for various replicons and mutants was calculated for selected compounds of the present invention using this method and is provided in the tables above herein.

As usually defined, the EC90 is the point of the concentration-response curve where the effect stands at 90%. Take `COC(=O)N[C@H](C(=O)N1CCC[C@H]1c1ncc(-c2ccc(-c3ccc4c(ccc5nc([C@@H]6C[Si](C)(C)CN6C(=O)[C@@H](NC(=O)OC)C6CC6)[nH]c54)c3)cc2)[nH]1)C(C)C` [Compound 70]: the EC90 in assay [1] is 0.35 nM; in assay [2], 162 nM; in assay [3] it was over 1000 nM; in assay [4], 0.02 nM.
Turning to `CC[C@H](C)[C@H](NC(=O)OC)C(=O)N1CCC[C@H]1c1ncc(-c2ccc(-c3ccc4c(ccc5nc([C@@H]6C[Si](C)(C)CN6C(=O)[C@@H](NC(=O)OC)[C@@H](C)CC)[nH]c54)c3)cc2)[nH]1` [Compound 22], the EC90 in assay [1] came out at 0.35 nM; in assay [2], 250 nM; in assay [3] it was 746 nM; in assay [4], 0.03 nM.
For `COC(=O)NC(C(=O)N1C[Si](C)(C)C[C@H]1c1nc2ccc3cc(-c4ccc5cc(-c6cnc([C@@H]7CCCN7C(=O)[C@H](NC(=O)OC)C(C)C)[nH]6)ccc5c4)ccc3c2[nH]1)[C@@H](C)OC` (some centres unmarked) [Compound 117] the same measures were 0.039 nM, over 100 nM, over 100 nM and over 1 nM.
Regarding `COC(=O)N[C@H](C(=O)N1CCC[C@H]1c1ncc(-c2ccc(-c3ccc4c(ccc5nc([C@@H]6C[Si](C)(C)CN6C(=O)[C@@H](NC(=O)OC)C6CCOCC6)[nH]c54)c3)cc2)[nH]1)C(C)C` [Compound 69], the EC90 in assay [1] was found to be 0.33 nM; in assay [2] it was 19 nM; in assay [3], 118 nM; in assay [4], 0.05 nM.
For `COC(=O)N[C@@H](C(=O)N1CCC[C@@H]1c1ncc(-c2ccc3cc(-c4ccc5c(ccc6nc([C@H]7C[Si](C)(C)CN7C(=O)OC(C)(C)C)[nH]c65)c4)ccc3c2)[nH]1)C(C)C` [Compound 116] the same measures were over 1 nM, over 100 nM, over 100 nM and over 1 nM.
As for `COC(=O)N[C@H](C(=O)N1C[Si](C)(C)C[C@H]1c1nc2ccc3cc(-c4ccc(-c5nc(Cl)c([C@@H]6C[C@H]7C[C@H]7N6C(=O)[C@@H](NC(=O)OC)C(C)C)[nH]5)cc4)ccc3c2[nH]1)C(C)C` [Compound 108], the EC90 turned out to be 0.04 nM in assay [1], 543 nM in assay [2], 151 nM in assay [3] and 0.02 nM in assay [4].
Taken in the same sequence, the figures for `CCN(CC)[C@H](C(=O)N1C[Si](C)(C)C[C@H]1c1nc2ccc3cc(-c4ccc(-c5cnc([C@@H]6CCCN6C(=O)[C@@H](NC(=O)OC)C(C)C)[nH]5)cc4)ccc3c2[nH]1)c1ccccc1` [Compound 78] were 0.14 nM, 6.5 nM, 514 nM and 0.03 nM.
Taken in the same sequence, the figures for `COC(=O)NC(Cc1cccs1)C(=O)N1C[Si](C)(C)C[C@H]1c1nc2ccc3cc(-c4ccc(-c5cnc([C@@H]6CCCN6C(=O)[C@@H](NC(=O)OC)C(C)C)[nH]5)cc4)ccc3c2[nH]1` (some centres unmarked) [Compound 75] were 3.4 nM, 425 nM, over 1000 nM and 0.04 nM.
